Measured values as given in paper PMC10783087 (Microbiology Spectrum, 2023).
pEC50: −log10 of the molar value. Converted amounts (≈) assume the structure as drawn. “And” between values parts separate entries of the source, which are not always exact repeats. Equal entries are not always repeated. Where two headings read alike, the source gives them in different places.

Key:
M. abscessus ATCC 19977 = assay: In vitro MIC against NTM, microbroth dilution; format: cell-based; details: 7 days
Erdman = assay: microbe, parasite or virus in culture; format: cell-based; details: Mycobacterium tuberculosis
Mtb [1] = details: earlier report; read-out: EC50 against Mtb in vitro; cited from earlier work
MAB = details: at 20 µM; cited from earlier work
in vitro [2] = details: mouse
[3] = format: in vitro ADME, mouse
Method: The mouse microsomal stability assay was conducted as described by Obach ([57]), and the results are presented as the percentages remaining after 30 min. Values greater than 100% are likely due to changes in the solubility of the compounds over the course of the assay and represent high stability in microsomes.

[4] = test system: primary bone marrow-derived macrophages (BMMΦ); details: for Si (CC50/EC50): macrophage CC50 / in vitro Mtb EC50; for S.I. (CC50 / EC50): BMMΦ CC50 / ex vivo EC50, Table S1
physchem = format: physicochemical; details: kinetic from dmso stock
Method: The kinetic solubility assay was conducted as previously described ([18]). Briefly, using methods described by Bevan and Lloyd ([56]), the assay was performed with 7-point (twofold) dilutions of the compounds, from 200 to 3.125 μM along with mebendazole, bexarotene, and aspirin as controls. The drug dilutions were added to PBS, pH 7.4, with a DMSO concentration of 1% (final), and incubated at 37°C for 2 h. The absorbance at 620 nm was measured for each drug dilution to estimate the solubility of the compound in triplicate/ dilution.

Mtb [5] = assay: microbe, parasite or virus in culture; format: cell-based, Mycobacterium tuberculosis; details: for pEC50: read-out: In vitro EC50; for EC90: read-out: In vitro EC90
[6] = test system: Mtb CDC1551 FFluc reporter strain in primary bone marrow-derived macrophages; design: method as in PMID 31405862; details: earlier report; read-out: EC50 against intracellular Mtb; cited from earlier work
[7] = test system: primary bone marrow-derived macrophages (BMMΦ); details: earlier report; cited from earlier work
H37Rv = assay: microbe, parasite or virus in culture; format: cell-based; details: Mycobacterium tuberculosis
Mtb Erdman = format: in vivo, Mycobacterium tuberculosis; details: for median lung bacterial burden: C57Bl/6 mice, oral gavage 2 weeks; for median lung bacterial burden / colonies in spleens (dissemination): INH 25 mg/kg, MSU compounds 200 mg/kg
H37Rv (ΔkatG) = format: cell-based
[8] = test system: M. avium ATC 700891 (MAC 101); assay: In vitro MIC against NTM, microbroth dilution; format: cell-based; details: 7 days; for MIC: Mycobacterium avium, 168 h
[9] = test system: Mtb CDC1551 FFluc reporter strain in primary bone marrow-derived macrophages; assay: microbe, parasite or virus in culture; format: cell-based; details: Mycobacterium tuberculosis, Macrophage; for EC90: read-out: ex vivo EC90
in vitro [10] = format: cell-based; details: human, 24 h treatment
Method: For additional cell lines including HepG2, HeLa, and THP-1, the following protocol was used. HepG2 (ATCC HB-8065) and HeLa (ATCC CCL-2) were cultured in cEMEM supplemented with 10% (vol/vol)/FBS and 1%(vol/vol) PenStrep. THP-1 cells were cultured in cRPMI-1640 medium (ATCC 30-2001) supplanted with 10% (vol/vol) FBS and 0.05 mM 2-mercaptoethanol (Sigma M3148). THP-1 cells were seeded in 96 well plates at 1 × 10^5 cells/mL with complete medium. HepG2 and HeLa cells were seeded in 96 well plates with cEMEM at 1 × 10^6 cells/mL. Cells were treated with compounds by dose response in a range of 128–0.48 µg/mL in triplicate or mitomycin C at a range of 128–0.0625 µM. Cells were treated for 24 h at 37°C with 5% CO2. Cells were then treated with either MTT or resazurin for 4 h. Absorbance was then measured at 570 nm for MTT plates. Percent cytotoxicity was calculated relative to positive mitomycin C and untreated controls. Percent cytotoxicity was used to calculate the IC50 using Graphpad prism software using non-linear regression analysis.

[11] = format: in vivo, female C57Bl/6 mice; details: 200 mg/kg oral in corn oil
Method: Female C57Bl/6 mice were dosed with 200 mg/kg (based on the average body mass of 27 mice) of MSU-43085, MSU-43165, or MSU-43170 formulated in corn oil by oral gavage. At 1-, 2-, and 4-h post treatment, blood samples were taken from three mice from each treatment group by cardiac puncture and placed in BD Lithium HeparinN Vacutainer tubes. Plasma was separated from whole blood by centrifuge, and compounds were methanol extracted. Lungs were harvested from mice 4- h post treatment. Lung samples were homogenized using a closed tissue grinder system (Fisherbrand—02-542-09), and compounds were methanol extracted from lung homogenates. Methanol-extracted samples were quantified by UPLC/MS/MS.

Mtb [12] = details: cited from earlier work
[13] = Mycobacteroides abscessus, ATCC19977, 168 h
[14] = Table S5, % remaining after 30 minutes with mouse microsomes
[15] = 37 °C, pH 2, aqueous buffer, Table S5, read-out: Kinetic solubility at pH 2.0
[16] = 37 °C, pH 7.4, aqueous buffer, Table S5, read-out: Kinetic solubility at pH 7.4
[17] = Mycobacterium tuberculosis, 144 h
[18] = intracellular Mtb in BMMΦ, Table S1, read-out: ex vivo EC50
[19] = intracellular Mtb in BMMΦ, Table S1
[20] = read-out: HeLa Cytotoxicity (IC50)
[21] = read-out: HepG2 Cytotoxicity (IC50)
[22] = read-out: THP-1 Cytotoxicity (IC50)
[23] = mouse microsomes, % remaining after 30 min
[24] = 37 °C, aqueous buffer, PBS pH 7.4, read-out: Kinetic solubility pH 7.4
[25] = aqueous buffer, PBS pH 2.0, read-out: Kinetic solubility pH 2.0
[26] = read-out: intra-macrophage EC50

NCC[C@H](O)C(=O)N[C@@H]1C[C@H](N)[C@@H](O[C@H]2O[C@H](CN)[C@@H](O)[C@H](O)[C@H]2O)[C@H](O)[C@H]1O[C@H]1O[C@H](CO)[C@@H](O)[C@H](N)[C@H]1O [Amikacin]
MIC (M. abscessus ATCC 19977): 6.8 µM (≈ 3.98 µg/mL)
MIC (M. abscessus ATCC 19977; [13]): 6.8 µM (≈ 3.98 µg/mL)

COc1nc2ccc(Br)cc2cc1[C@@H](c1ccccc1)[C@@](O)(CCN(C)C)c1cccc2ccccc12 [Bedaquiline]
pEC50 (Erdman): 6.66

CC(C)/N=c1\cc2n(-c3ccc(Cl)cc3)c3ccccc3nc-2cc1Nc1ccc(Cl)cc1 [Clofazimine]
pEC50 (Erdman): 6.52

CC(C)N(C(=O)CSc1nc2ccc(Cl)cc2[nH]1)C(C)C [HC2099]
pEC50 (Mtb [1]): 5.77
inhibition of MAB growth in vitro (MAB): 96.5%
CC50 (in vitro [2]): > 80000 nM
Microsome Stability [3, 14]: 71%
Si (CC50/EC50) [4]: >13
solubility kinetic (physchem; [15]): > 300 µM
solubility kinetic (physchem; [16]): 178 µM (≈ 58 µg/mL)
pEC50 (Mtb [5]; [17]): 5.23
EC90 (Mtb [5]; [17]): 13700 nM
pEC50 [6]: > 6.52
cytotoxicity in macrophages [7]: no detectable cytotoxicity

Cc1ccc2nc(SCC(=O)N(C(C)C)C(C)C)[nH]c2c1 [HC2183]
pEC50 (Mtb [1]): 5.49
CC50 (in vitro [2]): > 80000 nM
Microsome Stability [3, 14]: 25%
Si (CC50/EC50) [4]: >11
solubility kinetic (physchem; [15]): > 300 µM
solubility kinetic (physchem; [16]): > 200 µM
pEC50 (Mtb [5]; [17]): 5.14
EC90 (Mtb [5]; [17]): 16000 nM
pEC50 [6]: 5.52
cytotoxicity in macrophages [7]: no detectable cytotoxicity

NNC(=O)c1ccncc1 [Isoniazid]
MIC (H37Rv; read-out: MIC, H37Rv): 0.2 µM
median lung bacterial burden (Mtb Erdman): no colonies were isolated
colonies in spleens (dissemination) (Mtb Erdman): no colonies were isolated
MIC, H37Rv (ΔkatG) (H37Rv (ΔkatG)): >14.5 µM

Cc1cc2nc(SCC(=O)N(C(C)C)C(C)C)[nH]c2cc1C [MSU-42766]
MIC (H37Rv; read-out: MIC, H37Rv): 1.5 µM
MIC (H37Rv; read-out: activity (MIC) against WT): 0.5 µg/mL
pEC50 (Erdman): 5.89
CC50 (in vitro [2]): > 80000 nM
S.I. (CC50 / EC50) [4]: > 195.6
Si (CC50/EC50) [4]: >61
In vitro MIC, M. avium ATC 700891 (MAC 101) [8]: no detectable activity
MIC [8]: > 200 µM
pEC50 (Mtb [5]; [17]): 5.89
EC90 (Mtb [5]; [17]): 8200 nM
pEC50 [9, 18]: 6.39
EC90 [9, 19]: 970 nM
IC50 (in vitro [10]; [20]): > 128 µg/mL
IC50 (in vitro [10]; [21]): > 128 µg/mL
IC50 (in vitro [10]; [22]): 39.6 µg/mL (≈ 124 µM)
MIC (M. abscessus ATCC 19977): 12 µM (≈ 3.83 µg/mL)
MIC (M. abscessus ATCC 19977; [13]): 12 µM (≈ 3.83 µg/mL)
MIC, H37Rv (ΔkatG) (H37Rv (ΔkatG)): 1.5 µM (≈ 0.479 µg/mL)

CC(C)N(C(=O)CNc1nc2cc(Cl)c(Cl)cc2[nH]1)C(C)C [MSU-43165]
CC50 (in vitro [2]): > 80000 nM
Blood plasma concentration (1 h, fold EC50) ([11]; 1 h): 1.3 fold EC50 and 1.3× fold EC50
Microsome Stability [3, 14]: 106%
Microsome Stability [3, 23]: 106%
S.I. (CC50 / EC50) [4]: > 596.6
Si (CC50/EC50) [4]: >210
solubility kinetic (physchem; [24]): > 150 µM
solubility kinetic (physchem; [25]): > 300 µM
pEC50 (Mtb [5]; [17]): 6.42
EC90 (Mtb [5]; [17]): 628 nM
EC90 (Mtb [5]): 630 nM
pEC50 [9, 18]: 6.89
EC90 [9, 19]: 150 nM
pEC50 [9, 26]: 6.87
absolute difference of the median lung burden vs vehicle control (Mtb Erdman; 200 mg/kg oral, 2 weeks, not significant (P > 0.99)): 1.6 × 10^4 CFUs/mL
median lung bacterial burden (Mtb Erdman): 5.7 × 10^3 CFUs/mL
colonies in spleens (dissemination) (Mtb Erdman): colonies could also be detected

CC(C)N(C(=O)COc1nc2cc(Cl)c(Cl)cc2[nH]1)C(C)C [MSU-43170]
CC50 (in vitro [2]): > 80000 nM
Blood plasma concentration (2 h, fold EC50) ([11]; 2 h time point (1 h unavailable)): 4 fold EC50 and 4× ^ a fold EC50
Microsome Stability [3, 14]: 95%
Microsome Stability [3, 23]: 95%
S.I. (CC50 / EC50) [4]: > 2285
Si (CC50/EC50) [4]: >667
solubility kinetic (physchem; [24]): > 50 µM
solubility kinetic (physchem; [25]): > 300 µM
pEC50 (Mtb [5]; [17]): 6.94
EC90 (Mtb [5]; [17]): 263 nM
pEC50 (Mtb [5]): 6.92
EC90 (Mtb [5]): 260 nM
EC90 [9, 19]: 140 nM
pEC50 [9, 26]: 7.46

CO[C@@]12[C@H](COC(N)=O)C3=C(C(=O)C(C)=C(N)C3=O)N1C[C@@H]1N[C@@H]12 [Mitomycin C, reference compound]
IC50 (in vitro [10]; [20]): 10.5 µg/mL (≈ 31.5 µM)
IC50 (in vitro [10]; [21]): 23 µg/mL (≈ 68.8 µM)
IC50 (in vitro [10]; [22]): 3.09 µg/mL (≈ 9.25 µM)

COc1c(N2C[C@@H]3CCCN[C@@H]3C2)c(F)cc2c(=O)c(C(=O)O)cn(C3CC3)c12 [Moxifloxacin]
MIC (H37Rv; read-out: MIC, H37Rv): 0.15 µM
MIC, H37Rv (ΔkatG) (H37Rv (ΔkatG)): 0.15 µM (≈ 0.0602 µg/mL)

CC1(C)CCC(NC(=O)c2cc3c(Cl)cc(Cl)cc3[nH]2)CC1 [NITD-304]
MIC (Mtb [12]): 0.02 µM (≈ 0.00679 µg/mL)

CC1(C)CCC(NC(=O)c2cc3c(F)cc(F)cc3[nH]2)CC1 [NITD-349]
MIC (Mtb [12]): 0.03 µM (≈ 0.00919 µg/mL)

CO[C@H]1/C=C/O[C@@]2(C)Oc3c(C)c(O)c4c(O)c(c(/C=N/N5CCN(C)CC5)c(O)c4c3C2=O)NC(=O)/C(C)=C\C=C\[C@H](C)[C@H](O)[C@@H](C)[C@@H](O)[C@@H](C)[C@H](OC(C)=O)[C@@H]1C [Rifampicin]
MIC [8]: 0.07 µM (≈ 0.0576 µg/mL)
